Key:
Type in all cases: in vivo
[1] = system: ryegrass, Italian (Italian ryegrass, Lolium multiflorum); test: Test A preemergence; settings: Lolium multiflorum, pre-emergence, 240 h, Preemergence; for pest or weed control at 31 g/ha: 31 g ai/ha, 0 to 100 scale where 0 is no effect and 100 is complete control, read-out: Ryegrass, Italian plant response rating; for pest or weed control at 125 g/ha: 125 g ai/ha, visual injury rating after approximately 10 d, read-out: Ryegrass, Italian plant response rating (0 to 100 scale, 0 is no effect, 100 is complete control)
Summary of the method: (§1)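 Greenhouse, ~10 d after spray; visual injury vs untreated controls, 0 = no effect, 100 = complete control. Preemergence: directed soil spray over planted seeds. Postemergence: plants 2–10 cm, 1–2 leaf stage. Loam/sand blend. Compound in non-phytotoxic solvent with surfactant.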

[2] = system: pigweed (Amaranthus retroflexus); test: Test A preemergence; settings: Amaranthus retroflexus, pre-emergence, 240 h, Preemergence; for pest or weed control at 31 g/ha: 31 g ai/ha, 0 to 100 scale where 0 is no effect and 100 is complete control, read-out: Pigweed plant response rating; for pest or weed control at 125 g/ha: 125 g ai/ha, visual injury rating after approximately 10 d, read-out: Pigweed plant response rating (0 to 100 scale, 0 is no effect, 100 is complete control)
[3] = system: barnyardgrass (Echinochloa crus-galli); test: Test A preemergence; settings: Echinochloa crus-galli, pre-emergence, 240 h, Preemergence; for pest or weed control at 125 g/ha: 125 g ai/ha, visual injury rating after approximately 10 d, read-out: Barnyardgrass plant response rating (0 to 100 scale, 0 is no effect, 100 is complete control); for pest or weed control at 31 g/ha: 31 g ai/ha, 0 to 100 scale (0 no effect, 100 complete control), read-out: Plant response rating, Barnyardgrass
Summary of the method: as §1

[4] = system: giant foxtail (Setaria faberii); test: Test A preemergence; settings: Setaria faberi, pre-emergence, 240 h, Preemergence; for pest or weed control at 125 g/ha: 125 g ai/ha, visual injury rating after approximately 10 d, read-out: Foxtail, Giant plant response rating (0 to 100 scale, 0 is no effect, 100 is complete control); for pest or weed control at 31 g/ha: 31 g ai/ha, 0 to 100 scale (0 no effect, 100 complete control), read-out: Plant response rating, Foxtail, Giant
Summary of the method: as §1

[5] = system: ragweed (common ragweed, Ambrosia elatior); test: Test A preemergence; settings: Ambrosia artemisiifolia, pre-emergence, 240 h, Preemergence; for pest or weed control at 31 g/ha: 31 g ai/ha, 0 to 100 scale where 0 is no effect and 100 is complete control, read-out: Ragweed plant response rating; for pest or weed control at 125 g/ha: 125 g ai/ha, visual injury rating after approximately 10 d, read-out: Ragweed plant response rating (0 to 100 scale, 0 is no effect, 100 is complete control)
Summary of the method: as §1

Kochia (Kochia scoparia) [6] = test: Test A preemergence; settings: Bassia scoparia, pre-emergence, 240 h, Preemergence; for pest or weed control at 31 g/ha: 31 g ai/ha, 0 to 100 scale where 0 is no effect and 100 is complete control, read-out: Kochia plant response rating; for pest or weed control at 125 g/ha: 125 g ai/ha, visual injury rating after approximately 10 d, read-out: Kochia plant response rating (0 to 100 scale, 0 is no effect, 100 is complete control)
Summary of the method: as §1

[7] = system: sedge, umbrella (small-flower umbrella sedge, Cyperus difformis); test: Test B flooded paddy test; settings: Cyperus difformis, 250 g ai/ha, Flood; 0 to 100 scale where 0 is no effect and 100 is complete control; read-out: Sedge, Umbrella plant response rating
Summary of the method: (§2)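 Plants at 2-leaf stage flooded to 3 cm above soil, with compounds applied directly to paddy water and that depth maintained. Plants kept in greenhouse 13–15 d. Visual rating versus controls on a 0 (no effect) to 100 (complete control) scale.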

[8] = system: barnyardgrass (Echinochloa crus-galli); test: Test B flooded paddy test; settings: Echinochloa crus-galli, 250 g ai/ha, Flood; 0 to 100 scale where 0 is no effect and 100 is complete control; read-out: Barnyardgrass plant response rating
Summary of the method: as §2

[9] = system: ducksalad (Heteranthera limosa); test: Test B flooded paddy test; settings: Heteranthera limosa, 250 g ai/ha, Flood; 0 to 100 scale where 0 is no effect and 100 is complete control; read-out: Ducksalad plant response rating
Summary of the method: as §2

rice (Oryra sativa) = test: Test B flooded paddy test; settings: Oryza sativa, 250 g ai/ha, Flood; 0 to 100 scale where 0 is no effect and 100 is complete control; read-out: Rice plant response rating
Summary of the method: as §2

[10] = system: ryegrass, Italian (Italian ryegrass, Lolium multiflorum); test: Test A postemergence; settings: Lolium multiflorum, post-emergence, 240 h, Postemergence, read-out: Plant response rating, Ryegrass, Italian; for pest or weed control at 125 g/ha: 125 g ai/ha, visual injury after approximately 10 d, 0 to 100 scale where 0 is no effect and 100 is complete control; for pest or weed control at 31 g/ha: 31 g ai/ha, visual injury after approx. 10 d, 0 to 100 scale, 0 no effect, 100 complete control
Summary of the method: as §1

[11] = system: pigweed (Amaranthus retroflexus); test: Test A postemergence; settings: Amaranthus retroflexus, post-emergence, 240 h, Postemergence, read-out: Plant response rating, Pigweed; for pest or weed control at 125 g/ha: 125 g ai/ha, visual injury after approximately 10 d, 0 to 100 scale where 0 is no effect and 100 is complete control; for pest or weed control at 31 g/ha: 31 g ai/ha, visual injury after approx. 10 d, 0 to 100 scale, 0 no effect, 100 complete control
Summary of the method: as §1

[12] = system: Galium (catchweed bedstraw, Galium aparine); test: Test A postemergence; settings: Galium, post-emergence, 240 h, Postemergence, read-out: Plant response rating, Galium; for pest or weed control at 125 g/ha: 125 g ai/ha, visual injury after approximately 10 d, 0 to 100 scale where 0 is no effect and 100 is complete control; for pest or weed control at 31 g/ha: 31 g ai/ha, visual injury after approx. 10 d, 0 to 100 scale, 0 no effect, 100 complete control
Summary of the method: as §1

[13] = system: barnyardgrass (Echinochloa crus-galli); test: Test A postemergence; settings: Echinochloa crus-galli, post-emergence, 240 h, Postemergence, read-out: Plant response rating, Barnyardgrass; for pest or weed control at 125 g/ha: 125 g ai/ha, visual injury after approximately 10 d, 0 to 100 scale where 0 is no effect and 100 is complete control; for pest or weed control at 31 g/ha: 31 g ai/ha, visual injury after approx. 10 d, 0 to 100 scale, 0 no effect, 100 complete control
Summary of the method: as §1

[14] = system: wheat (Triticum aestivum); test: Test A postemergence; settings: Triticum aestivum, post-emergence, 240 h, Postemergence, read-out: Plant response rating, Wheat; for plant injury at 125 g/ha: 125 g ai/ha, visual injury after approximately 10 d, 0 to 100 scale where 0 is no effect and 100 is complete control; for plant injury at 31 g/ha: 31 g ai/ha, visual injury after approx. 10 d, 0 to 100 scale, 0 no effect, 100 complete control
Summary of the method: as §1

[15] = system: blackgrass (Alopecurus myosuroides); test: Test A postemergence; settings: Alopecurus myosuroides, post-emergence, 240 h, Postemergence, read-out: Plant response rating, Blackgrass; for pest or weed control at 125 g/ha: 125 g ai/ha, visual injury after approximately 10 d, 0 to 100 scale where 0 is no effect and 100 is complete control; for pest or weed control at 31 g/ha: 31 g ai/ha, visual injury after approx. 10 d, 0 to 100 scale, 0 no effect, 100 complete control
Summary of the method: as §1

[16] = system: giant foxtail (Setaria faberii); test: Test A postemergence; settings: Setaria faberi, post-emergence, 240 h, Postemergence, read-out: Plant response rating, Foxtail, Giant; for pest or weed control at 125 g/ha: 125 g ai/ha, visual injury after approximately 10 d, 0 to 100 scale where 0 is no effect and 100 is complete control; for pest or weed control at 31 g/ha: 31 g ai/ha, visual injury after approx. 10 d, 0 to 100 scale, 0 no effect, 100 complete control
Summary of the method: as §1

[17] = system: ragweed (common ragweed, Ambrosia elatior); test: Test A postemergence; settings: Ambrosia artemisiifolia, post-emergence, 240 h, Postemergence, read-out: Plant response rating, Ragweed; for pest or weed control at 125 g/ha: 125 g ai/ha, visual injury after approximately 10 d, 0 to 100 scale where 0 is no effect and 100 is complete control; for pest or weed control at 31 g/ha: 31 g ai/ha, visual injury after approx. 10 d, 0 to 100 scale, 0 no effect, 100 complete control
Summary of the method: as §1

Kochia (Kochia scoparia) [18] = test: Test A postemergence; settings: Bassia scoparia, post-emergence, 240 h, Postemergence, read-out: Plant response rating, Kochia; for pest or weed control at 125 g/ha: 125 g ai/ha, visual injury after approximately 10 d, 0 to 100 scale where 0 is no effect and 100 is complete control; for pest or weed control at 31 g/ha: 31 g ai/ha, visual injury after approx. 10 d, 0 to 100 scale, 0 no effect, 100 complete control
Summary of the method: as §1

corn (Zea mays) = test: Test A postemergence; settings: Zea mays, post-emergence, 240 h, Postemergence; for Corn plant response rating (crop injury, 0 = no effect, 100 = complete kill) at 125 g/ha: 125 g ai/ha, visual injury after approximately 10 d, 0 to 100 scale where 0 is no effect and 100 is complete control; for Corn plant response rating (crop injury, 0 = no effect, 100 = complete kill) at 31 g/ha: 31 g ai/ha, visual injury after approx. 10 d, 0 to 100 scale, 100 complete control
Summary of the method: as §1

CN1CC[C@H](c2ccccc2C(F)(F)F)[C@@H](C(=O)Nc2cccc(F)c2F)C1=O [Compound 1009]
0%: pest or weed control at 31 g/ha [1] | pest or weed control at 125 g/ha [1] | pest or weed control at 31 g/ha [2] | pest or weed control at 125 g/ha [2] | pest or weed control at 125 g/ha [3] | pest or weed control at 31 g/ha [3] | pest or weed control at 125 g/ha [4] | pest or weed control at 31 g/ha [4] | pest or weed control at 31 g/ha [5] | pest or weed control at 125 g/ha [5] | pest or weed control at 31 g/ha (Kochia (Kochia scoparia) [6]) | pest or weed control at 125 g/ha (Kochia (Kochia scoparia) [6]) | pest or weed control at 250 g/ha [7] | pest or weed control at 250 g/ha [8] | pest or weed control at 250 g/ha [9] | pest or weed control at 250 g/ha (rice (Oryra sativa)) | pest or weed control at 125 g/ha [10] | pest or weed control at 31 g/ha [10] | pest or weed control at 125 g/ha [11] | pest or weed control at 31 g/ha [11] | pest or weed control at 125 g/ha [12] | pest or weed control at 31 g/ha [12] | pest or weed control at 125 g/ha [13] | pest or weed control at 31 g/ha [13] | plant injury at 125 g/ha [14] | plant injury at 31 g/ha [14] | pest or weed control at 125 g/ha [15] | pest or weed control at 31 g/ha [15] | pest or weed control at 125 g/ha [16] | pest or weed control at 31 g/ha [16] | pest or weed control at 125 g/ha [17] | pest or weed control at 31 g/ha [17] | pest or weed control at 125 g/ha (Kochia (Kochia scoparia) [18]) | pest or weed control at 31 g/ha (Kochia (Kochia scoparia) [18]) | Corn plant response rating (crop injury, 0 = no effect, 100 = complete kill) at 125 g/ha (corn (Zea mays)) | Corn plant response rating (crop injury, 0 = no effect, 100 = complete kill) at 31 g/ha (corn (Zea mays))

CN1CC[C@H](c2ccccc2C(F)(F)F)[C@@H](C(=O)Nc2ccc(F)c(F)c2F)C1=O [Compound 1010]
0%: pest or weed control at 31 g/ha [1] | pest or weed control at 125 g/ha [1] | pest or weed control at 31 g/ha [2] | pest or weed control at 125 g/ha [2] | pest or weed control at 125 g/ha [3] | pest or weed control at 31 g/ha [3] | pest or weed control at 125 g/ha [4] | pest or weed control at 31 g/ha [4] | pest or weed control at 31 g/ha [5] | pest or weed control at 125 g/ha [5] | pest or weed control at 31 g/ha (Kochia (Kochia scoparia) [6]) | pest or weed control at 125 g/ha (Kochia (Kochia scoparia) [6]) | pest or weed control at 250 g/ha [7] | pest or weed control at 250 g/ha [8] | pest or weed control at 250 g/ha [9] | pest or weed control at 250 g/ha (rice (Oryra sativa)) | pest or weed control at 125 g/ha [10] | pest or weed control at 31 g/ha [10] | pest or weed control at 125 g/ha [11] | pest or weed control at 31 g/ha [11] | pest or weed control at 125 g/ha [12] | pest or weed control at 31 g/ha [12] | pest or weed control at 125 g/ha [13] | pest or weed control at 31 g/ha [13] | plant injury at 125 g/ha [14] | plant injury at 31 g/ha [14] | pest or weed control at 125 g/ha [15] | pest or weed control at 31 g/ha [15] | pest or weed control at 125 g/ha [16] | pest or weed control at 31 g/ha [16] | pest or weed control at 125 g/ha [17] | pest or weed control at 31 g/ha [17] | pest or weed control at 125 g/ha (Kochia (Kochia scoparia) [18]) | pest or weed control at 31 g/ha (Kochia (Kochia scoparia) [18]) | Corn plant response rating (crop injury, 0 = no effect, 100 = complete kill) at 125 g/ha (corn (Zea mays)) | Corn plant response rating (crop injury, 0 = no effect, 100 = complete kill) at 31 g/ha (corn (Zea mays))
